pKi: −log10 of the molar value.
How the values were obtained:
Adenosine receptor A1 = molecular target: T1, Adenosine receptor A1 (Cavia porcellus, UniProt P47745)
T1 sequence (P47745 whole entry): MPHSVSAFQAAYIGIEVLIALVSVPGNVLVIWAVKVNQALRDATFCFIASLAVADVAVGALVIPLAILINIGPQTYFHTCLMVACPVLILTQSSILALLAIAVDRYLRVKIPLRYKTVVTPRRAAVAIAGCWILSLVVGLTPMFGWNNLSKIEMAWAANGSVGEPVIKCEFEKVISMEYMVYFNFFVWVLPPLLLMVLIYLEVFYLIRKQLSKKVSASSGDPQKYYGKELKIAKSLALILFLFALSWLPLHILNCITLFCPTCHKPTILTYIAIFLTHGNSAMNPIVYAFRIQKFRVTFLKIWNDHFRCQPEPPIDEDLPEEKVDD
Description: Binding affinity against adenosine A1 receptor in guinea pig forebrain membranes using N6-[3H]cyclohexyladenosine as radioligand

Rattus norvegicus [1] = experiment: Ratio of urinary excretion value (Na+ concentration) in treated rats to that in control rats, at a peroral dose of 25 mg/Kg; format: functional, Urine
Rattus norvegicus [2] = experiment: Percent inhibition of serum creatinine by the compound given as ratio of Cr value in treated to vehicle treated ones after intraperitoneal administration of 1 mg/kg of compound to rats(vehicle 3.75+/-0.34); format: functional; conditions: ip
Rattus norvegicus [3] = experiment: Urea nitrogen concentration measured after intraperitoneal administration of 10 mg/kg of compound to rats(vehicle 144.1+/-6.1); format: functional
Rattus norvegicus [4] = experiment: Urea nitrogen concentration measured after intraperitoneal administration of 1 mg/kg of compound to rats(vehicle 137.4+/-16.5); format: functional
Rattus norvegicus [5] = experiment: Percent inhibition of Urea nitrogen by the compound given as ratio of UN value in treated to vehicle treated ones after intraperitoneal administration of 10 mg/kg of compound to rats(vehicle 144.1+/-6.1); format: functional; conditions: ip
Rattus norvegicus [6] = experiment: Ratio of urinary excretion value (urinary volume) in treated rats to that in control rats, at a peroral dose of 25 mg/Kg; format: functional, Urine
Adenosine A2 receptor = Adenosine A2 receptor (Rattus norvegicus, UniProt P29276+P30543)
Rattus norvegicus [7] = experiment: Oral diuretic activity was measured after oral administration of 25 mg/kg to rats(control volume is 0.74+/-0.07); format: functional, Urine
Rattus norvegicus [8] = experiment: Serum creatinine concentration measured after intraperitoneal administration of 1 mg/kg of compound to rats(vehicle 3.75+/-0.34); format: functional
Rattus norvegicus [9] = experiment: Ratio of sodium ion/potassium ion concentration in treated rats to that in control rats, at a peroral dose of 25 mg/Kg; format: functional
Rattus norvegicus [10] = experiment: Effect on urinary excretion potassium and sodium after oral administration of 25 mg/kg to rats(potassium and sodium excretion in control rat is 0.172+/-0.015); format: functional, Urine
Rattus norvegicus [11] = experiment: Percent inhibition of serum creatinine by the compound given as ratio of Cr value in treated to vehicle treated ones after intraperitoneal administration of 10 mg/kg of compound to rats(vehicle 4.21+/-0.21); format: functional; conditions: ip
Rattus norvegicus [12] = experiment: Serum creatinine concentration measured after intraperitoneal administration of 10 mg/kg of compound to rats(vehicle 4.21+/-0.21); format: functional
Rattus norvegicus [13] = experiment: Percent inhibition of Urea nitrogen by the compound given as ratio of UN value in treated to vehicle treated ones after intraperitoneal administration of 1 mg/kg of compound to rats(vehicle 137.4+/-16.5); format: functional; conditions: ip
Rattus norvegicus [14] = experiment: Serum creatinine concentration measured after intraperitoneal administration of 1 mg/kg of compound to rats(vehicle 5.07+/-0.33); format: functional; conditions: 1 mg/kg
Rattus norvegicus [15] = experiment: Urea nitrogen concentration measured after intraperitoneal administration of 1 mg/kg of compound to rats(vehicle 195.8+/-14.4); format: functional; conditions: 1 mg/kg
Rattus norvegicus [16] = experiment: Effect on urinary excretion potassium and sodium after oral administration of 25 mg/kg to rats(potassium and sodium excretion in control rat is 0.180+/-0.024); format: functional, Urine
Rattus norvegicus [17] = experiment: Ratio of urinary excretion value (Na+ concentration) in treated rats to that in control rats, at a peroral dose of 6.25 mg/Kg; format: functional, Urine
Rattus norvegicus [18] = experiment: Percent inhibition of Urea nitrogen by the compound given as ratio of UN value in treated to vehicle treated ones after intraperitoneal administration of 1 mg/kg of compound to rats(vehicle 195.8+/-14.4); format: functional; conditions: 1 mg/kg
Rattus norvegicus [19] = experiment: Ratio of urinary excretion value (urinary volume) in treated rats to that in control rats, at a peroral dose of 6.25 mg/Kg; format: functional, Urine
Rattus norvegicus [20] = species: Rattus norvegicus; conditions: dose 1 mg/kg, route intraperitoneal
Rattus norvegicus [21] = experiment: Oral diuretic activity was measured after oral administration of 25 mg/kg to rats(control volume is 1.00+/-0.09); format: functional, Urine

`CCCn1c(=O)c2c(nc(C3CCCC3)n2C)n(CCC)c1=O` showed a pKi (Adenosine receptor A1) of 5.41, a T/C (Rattus norvegicus [1]) of 1.07 and an inhibition in vivo at 1 mg/kg (Rattus norvegicus [2]) of 30%. It also gave a UN (Rattus norvegicus [3]) of 107.9 mg/dL, a UN (Rattus norvegicus [4]) of 99.9 mg/dL and an inhibition in vivo at 10 mg/kg (Rattus norvegicus [5]) of 25%. The T/C (Rattus norvegicus [6]) was 1.45, the Ki (Adenosine A2 receptor) was > 10000 nM and the Urine volume (Rattus norvegicus [7]) was 1.07 ml 6hr-1 100g-1. For the same compound, the Cr (Rattus norvegicus [8]) was 2.62 mg/dL, the “Na+/K+” value (Rattus norvegicus [9]) was 1 and the Na (Rattus norvegicus [10]) was 0.184 m equiv 6hr-1 100g-1. It also gave an inhibition in vivo at 10 mg/kg (Rattus norvegicus [11]) of 26%, a Cr (Rattus norvegicus [12]) of 3.07 mg/dL and an inhibition in vivo at 1 mg/kg (Rattus norvegicus [13]) of 27%.
With `CCCn1c(=O)c2nc(C3CC4CCC3C4)[nH]c2n(CCC)c1=O` (stereo in doubt; 20) the Cr (Rattus norvegicus [14]) was 2.54 mg/dL, the UN (Rattus norvegicus [15]) was 98.8 mg/dL and the Na (Rattus norvegicus [16]) was 0.372 m equiv 6hr-1 100g-1. For the same compound, the T/C (Rattus norvegicus [17]) was 1.27, the T/C (Rattus norvegicus [1]) was 2.06 and the Inhibition (Rattus norvegicus [18]) was 49%. For the same compound, the T/C (Rattus norvegicus [6]) was 2.13, the pKi (Adenosine A2 receptor) was 6.54 and the T/C (Rattus norvegicus [19]) was 1.12. For the same compound, the “Na+/K+” value (Rattus norvegicus [9]) was 1.63, the Inhibition (Rattus norvegicus [20]) was 50% and the Urine volume (Rattus norvegicus [21]) was 2.13 ml 6hr-1 100g-1.

Source: ChEMBL document CHEMBL1125524, “Adenosine A1 antagonists. 2. Structure-activity relationships on diuretic activities and protective effects against acute renal failure” (J Med Chem, 1992)
